Measured values as given in patent publication US10753892B2, “Non-invasive sensing of free metal ions using ion chemical exchange saturation transfer” (The Johns Hopkins University, priority 2013, dated 2020).
Where “and” joins values, the source holds several entries; their conditions need not be identical. Identical values can stand only once. Entries after “also recorded” stand apart in the source; their conditions may differ. Marks after values point to notes of the source that are not given here. Values belong to the compound of their own block, whether it stands above or below them.

How the values were obtained:
[1] = 19F-iCEST MRI of 5F-BAPTA with Zn2+ (16.4 T, 37° C.); type: binding; details: 10 mM 5F-BAPTA, 50 μM Zn2+, pH 7.2 and 6.4
Description: (§1) 5F-BAPTA was dissolved in Hepes buffer (40 mM) to a final concentration of 10 mM and the pH was adjusted to the following values: 5.6, 6.0, 6.4, 6.8, 7.0, 7.2, and 7.6. Stock 10 mM solutions of CaCl2, MgCl2, and ZnCl2 were prepared in 40 mM Hepes buffer. Five μL of the stock solution was added to 1 mL of 10 mM 5F-BAPTA resulting in a 200:1 ratio (10 mM: 50 μM) between the free 5F-BAPTA and the M^2+ ion following by a pH adjustment. One mL of each sample (with adjusted pH) was transferred into a 8 mm NMR tube within a 25 mm NMR tube in order to center the sample in the coil for the MRI experiments.
(§2) MRI experiments were performed on a vertical 16.4 T scanner (Bruker Avance system) at 37° C. A 25 mm birdcage radiofrequency coil was used to acquire both ^1H and ^19F MR images by sweeping the coil frequency from proton (700 MHz) to fluorine (658.8 MHz) frequency.
(§3) The saturation transfer effect on the free 5F-BAPTA, i.e., the MTR or iCEST, was calculated for each voxel in the image by using a Lorentzian line shape fitting as described in Jones et al. (Magn Reson Med 2012, 67, 1579), and Liu et al. (Molecular imaging 2012, 11, 47).
(§4) Saturation time (tsat) was either 1500 ms to 2000 ms as indicated in the text.

[2] = 19F-CEST experiments with 5F-BAPTA at pH 7.0 (11.7 T NMR, 16.4 T MRI); type: binding; details: 10 mM 5F-BAPTA, 100 μM M2+, saturation at Δω=5.8 ppm
Description: ^19F-CEST experiments were performed on solutions containing 1,2-Bis-[2-bis(carboxymethyl)amino-5-fluorophenoxy]ethane (5F-BAPTA), with and without divalent cations (M^2+).
Experiments were performed on an 11.7T NMR spectrometer (Bruker). 5F-BAPTA (AnaSpec, Inc.) was dissolved in 40 mM HEPES buffer (pH=7.0) to a concentration of 5 mM, and CaCl2 was dissolved to a final Ca^2+ concentration of 50 μm.
^19F-CEST spectra (z-spectra) were acquired with a saturation transfer sequence consisting of a saturation pulse (B1=4.7 μT, 4 sec) with variable offset (from −7.5 to +7.5 ppm relative to the 5FBAPTA frequency set at 0 ppm). Experiments were performed without (room temperature, RT) and with sample heating (37° C.). The MTRasym=100×(S−Δω−S+Δω)/S0 was computed at different offsets Δω, where S0 is the 5F-BAPTA signal without saturation.
Imaging experiments were performed on a 16.4T MRI scanner (Bruker). 5F-BAPTA was dissolved to 10 mM in 40 mM HEPES, pH=7.0, with or without 100 μM of M^2+ (Mg^2+, Zn^2+, or Ca^2+).
^19F-CEST images were acquired using a continuous wave presaturation pulse (B1=3.6 μT, 3 sec) followed by a multi-echo MRI pulse sequence (RARE, rare factor 4, TR/TE=6000/10 ms). FOV of 4×4 cm, matrix 32×32 and slice thickness 10 mm. Mean ^19F-CEST spectra were derived after B0 correction for each voxel using MatLab. MTRasym plots and maps were calculated.

[3] = Relaxation times T1 and T2 of free 5F-BAPTA as a function of pH; type: physicochemical; details: free 5F-BAPTA 20 mM
Description: The same image geometry as in the ^19F-CEST experiments was used for the determination of T1 and T2 of the imaged samples. For T1 measurements, a saturation recovery experiment was performed with TR values of 61, 214, 395, 615, 899, 1296 1964, and 4961 ms. A spin-echo experiment (TR=5000 ms) with multiple echoes was performed with variable echo times (TE=5, 10 15, 20, 25, 30, 35, and 40 ms) to determine the T2 value of each sample.
Numerical solutions to the six Bloch equations including direct saturation of free 5F-BAPTA were obtained as described previously (McMahon, M. T. et al., Magnetic Resonance in Medicine 2006, 55, 836). The relaxation parameters for ^19F used in the Bloch equations were R1=1/T1 with bound calcium (Rib)=0.71 s^−1, R2 bound calcium (R2b)=29 s^−1, whereas the R1 and R2 values of free 5F-BAPTA (R1f and R2f) were determined experimentally through inversion-recovery and saturation-recovery experiments as a function of pH on solutions containing 20 mM 5F-BAPTA as listed in Table 1 as follows: […]

[4] = as above; type: physicochemical; details: pH 5.6, estimated from the Bloch equation fitting
[5] = 19F-iCEST MRI of 5F-BAPTA with Ca2+ (16.4 T, 37° C.), Bloch simulations; type: binding
Description: as §1, §2, §3
Numerical solutions to the six Bloch equations including direct saturation of free 5F-BAPTA were obtained as described previously (McMahon, M. T. et al., Magnetic Resonance in Medicine 2006, 55, 836). The relaxation parameters for ^19F used in the Bloch equations were R1=1/T1 with bound calcium (Rib)=0.71 s^−1, R2 bound calcium (R2b)=29 s^−1, whereas the R1 and R2 values of free 5F-BAPTA (R1f and R2f) were determined experimentally through inversion-recovery and saturation-recovery experiments as a function of pH on solutions containing 20 mM 5F-BAPTA as listed in Table 1 as follows:
as §4
An aqueous solution containing 0.5 mM of 5F-BAPTA and 500 nM in Hepes buffer (40 mM, pH=7.2) was transferred into a 20 mm NMR tube, which was located within a 25 mm NMR tube in order to centralize the sample in the coil for the MRI experiment. The same parameters used for ^19F-iCEST experiments were used except the followings: TR=3000 ms, RARE=8, FOV=6.0 cm (resolution=1.875×1.875 mm), and 168 averages.

[6] = 19F-iCEST MRI of 5F-BAPTA with Mg2+ (16.4 T, 37° C.); type: binding
Description: as §1, §2, §3, §4

[7] = cited from earlier work
[8] = London et al., 1994; cited from earlier work
[9] = Bloch simulations, two pool model
Description: (§5) Experiments were performed on solutions containing TF-BAPTA and multiple biologically relevant metal ions (K^+, Na^+, Ca^2+, Mg^2+, Cu^2+, Fe^2+ and Zn^2+) at 37° C. and pH=7.4. MR Spectroscopy as follows: TF-BAPTA was dissolved to a final concentration of 5 mM, and ions were add at 500 μM. Using 5-Fluorocytosine (5-FC) as an internal ^19F reference, ^19F-NMR spectra were acquired (11.7 T NMR spectrometer, Bruker). MRI: Experiments were performed on a 17.6 T MRI scanner (Bruker). TF-BAPTA was dissolved to 10 mM with 200″ AM of ion. A RARE (factor 8) sequence was used to acquire 1H MRI (TR/TE=5,000/7.7 ms, 1 mm slice, FOV=2×2 cm, matrix size=128×128). For ^19F MRI, the center frequency (O1) was set at the frequency of the 19F atom at the 6 position (0.0 ppm) of TF-BAPTA (FIG. 1a), while signal from the ^19F located at the 5 position of TF-BAPTA (FIG. 1a-b, 4.5 ppm downfield) was suppressed. A modified RARE sequence (TR/TE=4,000/3.4 ms, RARE factor=16, 6 mm slice, FOV=2×2 cm, matrix size=32×32, and a saturation pulse B1=1.2, 2.4 or 3.6 ItT/2 s) were used to acquire ^19F iCEST. Mean ^19F Z-spectra (iCEST spectra), were obtained after B0 correction. CEST contrasts, i.e., the magnetization transfer ratio (MTR) images were calculated after Lorentzian line shape fitting.

[10] = Bloch simulations, two pool model; remark: listed apart in the source
Description: as §5

T1 ([3]; pH 5.6): 715 ms
T1 ([3]; pH 6.0): 715 ms
T2 ([3]; pH 6.0): 10 ms
T1 ([3]; pH 6.4): 715 ms
T2 ([3]; pH 6.4): 11 ms
T1 ([3]; pH 6.8): 715 ms
T2 ([3]; pH 6.8): 25 ms
T1 ([3]; pH 7.0): 715 ms
T2 ([3]; pH 7.0): 32 ms
T1 ([3]; pH 7.2): 715 ms
T2 ([3]; pH 7.2): 38 ms
T1 ([3]; pH 7.6): 715 ms
T2 (ms) [4]: 6^a ms
Structure (SMILES): O=C(O)CN(CC(=O)O)c1ccc(F)cc1OCCOc1cc(F)ccc1N(CC(=O)O)CC(=O)O [5F-BAPTA, 2,2′,2″,2′″-(2,2′-(Ethane-1,2-diylbis(oxy))bis(4-fluoro-2,1-phenylene))bis(azanetriyl)tetraacetic acid]
iCEST contrast, Zn2+ containing sample [1]: did not generate iCEST contrast
19F-CEST MRI contrast among tubes with no M2+, Mg2+, Zn2+ or Ca2+ [2]: only the Ca^2+ containing solution generated contrast
Ca2+ concentration detected by iCEST ([5]; 0.5 mM 5F-BAPTA, pH 7.2): 500 nM
iCEST (saturation transfer) contrast, Ca2+ containing sample ([5]; 10 mM 5F-BAPTA, 50 μM Ca2+, pH 7.2 and 6.4, B1=3.6 μT/2000 ms): pronounced saturation transfer contrast was detected; also recorded: large iCEST contrast was detected
kex between [Ca-5F-BAPTA] and 5F-BAPTA ([5]; Bloch simulations, all examined pH values): 190 s⁻¹ and 190 ± 10 s⁻¹
Ca2+ specificity in a Zn2+ background ([5]; iCEST, FIGS. 13a-c): high Ca^2+ specificity
Ca2+ specificity in a Mg2+ background ([5]; iCEST, FIGS. 14a-c): high Ca^2+ specificity
amplification factor for Ca2+ ([5]; iCEST, kex 190 s−1): ~100
iCEST contrast in the Z-spectrum ([5]; χCa=1:1000, 5 mM 5F-BAPTA, pH 7.2): ~11%
iCEST contrast, Mg2+ containing sample ([6]; 10 mM 5F-BAPTA, 50 μM Mg2+, pH 7.2 and 6.4): did not generate iCEST contrast
amplification factor for Mg2+ ([6]; iCEST, FIG. 10b): 10

Structure (SMILES): O=C(O)CN(CC(=O)O)c1ccccc1OCCOc1ccccc1N(CC(=O)O)CC(=O)O [BAPTA, 1,2-bis(o-aminophenoxy)ethane-N,N,N′,N′-tetraacetic acid]
selectivity for Ca2+ over Mg2+ [7]: > 10^5
iCEST contrast produced by Ca2+ in mixtures ([5]; 50 μM Ca2+ with 200 μM Mg2+ or 50 μM Zn2+, 10 mM chelate, pH 7.2, Δω=6 ppm): ~22%

Structure (SMILES): O=C(O)CN(CC(=O)O)c1cc(F)c(F)cc1OCCOc1cc(F)c(F)cc1N(CC(=O)O)CC(=O)O [TF-BAPTA, 5,5′, 6,6′-tetrafluoro-BAPTA]
exchange rate of Ca2+ with TF-BAPTA [8]: ~30,000 s−1
exchange rate (kex) between free and Zn2+-bound TF-BAPTA [9]: ~20 s⁻¹
exchange rate (kex) between free and Fe2+-bound TF-BAPTA [10]: ~20 s⁻¹
